Reference: PMC8775487, “Insights into Asparaginase from Endophytic Fungus Lasiodiplodia theobromae: Purification, Characterization and Antileukemic Activity” (International Journal of Environmental Research and Public …, 2022)

Tested on: T1, purified asparaginase from L. theobromae
T1 construct: native extracellular enzyme purified from culture filtrate of asparagine-induced endophytic fungus (acetone, Q-FF, Sephadex G-100); about 70 kDa on SDS-PAGE
Assay: direct Nesslerization of released ammonia; Lineweaver-Burk and Michaelis-Menten plots
Assay type: biochemical, Lasiodiplodia theobromae
Conditions: asparagine 0-20 mM; standard assay pH 7, 37 °C
Source text: direct Nesslerization of released ammonia; Lineweaver-Burk and Michaelis-Menten plots on purified asparaginase from L. theobromae | Michaelis constant Km and maximum velocity Vmax of the purified asparaginase from L. theobromae were […]

`NC(=O)C[C@H](N)C(=O)O` [asparagine] was tested, and the Km was 9.37 µM.
